In ChEMBL document CHEMBL3046147, “Synthesis and Herbicidal Activity of 1-Arylalkyl-3-pyrrolin-2-one Derivatives” (J Pestic Sci, 2000) one finds MTD and MED data, which are given here for three molecules.

Series [1] concerns Oryza sativa. Briefly: Phytotoxicity against two-leaf stage Oryza sativa cv. Nihonbare (rice) planted 3 cm depth measured after […]. Conditions: in vivo. The format is organism-based.
Series [2] has as its system Oryza sativa. Briefly: Phytotoxicity against two-leaf stage Oryza sativa cv. Nihonbare (rice) planted 1 cm depth measured after […]. The format is organism-based. Conditions: in vivo.
For series [3], the system named is Echinochloa oryzicola. Kind of series: Herbicide activity against Echinochloa oryzicola under greenhouse condition compound treated at 2 leaf-stage measured after 14 to 20 days. The format is functional.
In another series the test system is Sagittaria pygmaea. Briefly: Herbicide activity against Sagittaria pygmaea under greenhouse condition compound treated at 0.5 leaf-stage measured after 14 to 20 days. The format is functional.
For series [4], the system named is Schoenoplectiella juncoides. Kind of series: Herbicide activity against Schoenoplectiella juncoides under greenhouse condition compound treated at emergence-stage measured after 14 to 20 days. The format is functional.
In series [5] the test system is Echinochloa oryzicola. Kind of series: Pre-emergence herbicide activity against Echinochloa oryzicola under greenhouse condition measured after 14 to 20 days. The format is functional.

Turning to `CC1=C(c2ccccc2)C(=O)N(C(C)(C)c2ncc(C(F)(F)F)cc2Cl)C1`, the MTD worked out at 20 g/acre in the series on Oryza sativa [1] and 5 g/acre in the series with Oryza sativa [2]. Besides, the MED in the series with Echinochloa oryzicola [3] is listed as below 5 g/acre; with Sagittaria pygmaea, 80 g/acre; in series [4], 80 g/acre; in the series with Echinochloa oryzicola [5], below 5 g/acre.
For `CC1=C(c2cccc([N+](=O)[O-])c2)C(=O)N(C(C)(C)c2nc3ccccc3s2)C1`, the MTD with Oryza sativa [1] and in the series on Oryza sativa [2] was 80 g/acre throughout. Moreover, the MED in the series on Echinochloa oryzicola [3] is below 5 g/acre; in the series on Sagittaria pygmaea it was 160 g/acre; in series [4], 160 g/acre; with Echinochloa oryzicola [5] it was 160 g/acre.
For `CC1=C(c2ccccc2Br)C(=O)N(C(C)(C)c2nc3ccccc3s2)C1`, the MTD in the series on Oryza sativa [1] is 5 g/acre; in the series with Oryza sativa [2], above 5 g/acre. The MED in the series on Echinochloa oryzicola [3] was below 5 g/acre; with Sagittaria pygmaea it was 40 g/acre; in series [4], 20 g/acre; with Echinochloa oryzicola [5] it was 2.5 g/acre.
